US8871747B2, “Urea and thiourea derivatives” (Topotarget A/S, priority 2008, dated 2014)
Where a name gives a salt, the structure may show the parent alone.

tested on: A2780 cells; assay: In vitro cell proliferation assay (WST-1 assay); type: cell-based; conditions: Homo sapiens, total incubation time 72 h, WST-1 viable cell readout
Experimental: A2780 cells were seeded in 96-well plates at 3×10^3 cells/well in 100 μL of culture medium, 8 wells were left empty for media only controls.
After 24 h the compound titrations were performed, in a separate dilution plate, by serially diluting the compounds of general formula (I) in culture medium. A 100 μL of each dilution was added to the plated cells, this was done in triplicate, and controls (e.g. DMSO and blanks) were included. The plates were incubated for 24 h at 37° C. in a CO2 incubator. The compound titrations were repeated in a separate dilution plate after 24 h. The media plus compound from the assay plates were then aspirated. A 100 μL of media was then added to all wells, followed by 100 μL of each compound dilution. The plates were incubated for a further 48 h at 37° C. in a CO2 incubator (total incubation time 72 h). The number of viable cells was then assessed using Cell Proliferation Reagent WST-1. 10 μL of WST-1 reagent added to each well and incubated for one to four hours at 37° C. in CO2 incubator. The absorbance was measured (450 nm/690 nm).
The activity of compounds of general formula (I) in reducing the number of viable cells was calculated as: % activity=[(S^C−B)/(S^O−B)]×100
S^C denotes signal measured in the presence of test compound, S^O denotes signal detected in the absence of compound, and B denotes background signal, measured in blank wells containing medium only. Analyse data using GraphPad Prism.

Row | Structure (SMILES) | IC50 [nM]
1 | O=S(=O)(CCCCCNC(=S)Nc1ccncc1)N(OCCN1CCOCC1)C1CCCC1 [Compound 1083, N-Cyclopentyl-N-(2-morpholinoethoxy)-5-(3-(pyridin-4-ylthioureido)pentane-1-sulfonamide oxalate] | 3.92
2 | O=S(=O)(CCCCCCNC(=S)Nc1ccncc1)N(CCCN1CCOCC1)C1CCCC1 [Compound 1064, N-Cyclopentyl-N-(3-morpholinopropyl)-6-(3-pyridin-4-ylthioureido)hexane-1-sulfonamide] | 0.55
3 | O=C(NCCCCCCCS(=O)(=O)N(OCCN1CCOCC1)C1CCCCC1)NCc1cccnc1 [Compound 1043] | 0.37
4 | O=S(=O)(CCCCCCNC(=S)Nc1ccncc1)N(CCF)OCC1CCCCC1 [Compound 1087, N-(cyclohexylmethoxy)-N-(2-fluoroethyl)-6-(3-pyridin-4-ylthioureido)hexane-1-sulfonamide] | 1.36
5 | O=C(NCCCCCCS(=O)(=O)NOCC1CCCCC1)Nc1ccncc1 [Compound 1001, N-(cyclohexylmethoxy)-6-(3-pyridin-4-ylureido)hexane-1-sulfonamide] | 13.5
6 | O=C(NCCCCCCS(=O)(=O)N(CCCN1CCOCC1)C1CCCCC1)Nc1ccncc1 [Compound 1026, N-Cyclohexyl-N-(3-morpholinopropyl)-6-(3-pyridin-4-ylureido)hexane-1-sulfonamide] | 0.23
7 | O=C(NCCCCCCC(=O)N(OCCN1CCOCC1)C1CCCCC1)Nc1ccncc1 [Compound 1002, N-Cyclohexyl-N-(2-morpholinoethoxy)-7-(3-pyridin-4-ylureido)heptanamide] | 1.49
8 | O=C(NCCCCCCC(=O)N(OCCN1CCOCC1)C1CCCCC1)Nc1cccnc1 [Compound 1065, N-Cyclohexyl-N-(2-morpholinoethoxy)-7-(3-pyridin-3-ylureido)heptanamide] | 0.22
9 | O=C(NCCCCCCS(=O)(=O)N(CCF)OCC1CCCCC1)Nc1ccncc1 [Compound 1088, N-(cyclohexylmethoxy)-N-(2-fluoroethyl)-6-(3-pyridin-4-ylureido)hexane-1-sulfonamide] | 0.13
10 | O=C(NCCCCCCS(=O)(=O)N(CCN1CCOCC1)OCC1CCCCC1)NCCc1cccnc1 [Compound 1032, N-(cyclohexylmethoxy)-N-(2-morpholinoethyl)-6-(3-(2-(pyridin-3-yl)ethyl)ureido)hexane-1-sulfonamide] | 14.1
11 | CCOP(=O)(CCCCCCNC(=O)NCc1cccnc1)NC1CCCCC1 (centres unmarked) [Compound 1067, Ethyl N-cyclohexyl-P-(6-(3-pyridin-3-ylmethyl)ureido)phosphonamidate] | 0.79
12 | O=C(/C=C/c1cccnc1)NCCCCC1CCN(C(=O)c2ccccc2)CC1 [FK866, reference compound] | 0.1
13 | O=C(NCCCCCCS(=O)(=O)N(OCCN1CCOCC1)C1CCCCC1)NCc1cccnc1 [Compound 1075, N-Cyclohexyl-N-(2-morpholinoethoxy)-6-(3-(pyridin-3-ylmethyl)ureido)hexane-1-sulfonamide oxalate] | 1.64
14 | O=C(NCCCCCCS(=O)(=O)N(CCN1CCOCC1)OCC1CCCCC1)NCc1cccnc1 [Compound 1031, N-(cyclohexylmethoxy)-N-(2-morpholinoethyl)-6-(3-(pyridin-3-ylmethyl)ureido)hexane-1-sulfonamide] | 0.13
15 | O=C(NCCCCCCS(=O)(=O)N1CCCCO1)NCc1cccnc1 [Compound 1018, hydrochloride] | 14
16 | CC(C)N(CCCN1CCOCC1)S(=O)(=O)CCCCCCNC(=O)Nc1ccncc1 [Compound 1049, N-Isopropyl-N-(3-morpholinopropyl)-6-(3-pyridin-4-ylureido)hexane-1-sulfonamide] | 0.6
17 | O=S(=O)(CCCCCCNC(=S)Nc1ccncc1)N(OCCN1CCOCC1)C1CCCCC1 [Compound 1005, N-Cyclohexyl-N-(2-morpholinethoxy)-6-(3-pyridin-4-ylthioureido)hexane-1-sulfonamide oxalate] | 0.34
18 | O=C(NCCCCCS(=O)(=O)N(OCCN1CCOCC1)C1CCCCC1)NCc1cccnc1 [Compound 1042] | 6.64
19 | COCCOCCOCCN(OCC1CCCCC1)S(=O)(=O)CCCCCCNC(=O)NCc1cccnc1 [Compound 1013, N-(cyclohexylmethoxy)-N-(2-(2-(2-methoxyethoxy)ethoxy)ethyl)-6-(3-(pyridin-3-ylmethyl)ureido)hexane-1-sulfonamide] | 0.11
20 | O=C(NCCCCCCS(=O)(=O)N(CCCN1CCOCC1)C1CCCC1)Nc1ccncc1 [Compound 1066, N-Cyclopentyl-N-(3-morpholinopropyl)-6-(3-pyridin-4-ylureido)hexane-1-sulfonamide] | 0.27
21 | CCOP(=O)(CCCCCCNC(=O)NCc1cccnc1)N1CCCCO1 (centres unmarked) [Compound 1072] | 2.4

Continued, values first:

Row | IC50 [nM] | Structure (SMILES)
22 | 0.15 | O=C(NCCCCCCS(=O)(=O)N(OCCN1CCOCC1)C1CCCC1)Nc1ccncc1 [Compound 1090]
23 | 0.053 | O=S(=O)(CCCCCCNC(=S)Nc1ccncc1)N(OCCN1CCOCC1)C1CCCC1 [Compound 1082]
24 | 2.23 | CC(C)N(OCCN1CCOCC1)S(=O)(=O)CCCCCCNC(=O)NCc1cccnc1 [Compound 1022, N-Isopropyl-N-(2-morpholinoethoxy)-6-(3-(pyridin-3-ylmethyl)ureido)hexane-1-sulfonamide]
25 | 1.34 | O=C(NCCCCCCC(=O)N(OCCN1CCOCC1)C1CCCCC1)NCCc1cccnc1 [Compound 1020]
26 | 0.89 | O=C(CCCCCCNC(=S)NCc1cccnc1)N(OCCN1CCOCC1)C1CCCCC1 [Compound 1015, N-cyclohexyl-N-(2-morpholinoethoxy)-7-(3-(pyridin-3-ylmethyl)thioureido)heptanamide]
27 | 3.04 | O=C(NCCCCCS(=O)(=O)N(CCCN1CCOCC1)C1CCCC1)NCc1cccnc1 [Compound 1069, N-cyclopentyl-N-(3-morpholinopropyl)-5-(3-(pyridin-3-ylmethyl)ureido)pentane-1-sulfonamide]
28 | 0.83 | O=S(=O)(CCCCCCNC(=S)Nc1ccncc1)N(CCCN1CCOCC1)C1CCCCC1 [Compound 1081, N-Cyclohexyl-N-(3-morpholinopropyl)-6-(3-(pyridin-4-ylthioureido)hexane-1-sulfonamide oxalate]
29 | 0.46 | O=C(NCCCCCCS(=O)(=O)N(CCN1CCOCC1)OCc1ccccc1)NCc1cccnc1 [Compound 1078, N-(Benzyloxy)-N-(2-morpholinoethyl)-6-(3-(pyridin-3-ylmethyl)ureido)hexane-1-sulfonamide]
30 | 0.58 | O=C(NCCCCCCS(=O)(=O)N(OCCN1CCOCC1)C1CCCC1)NCc1cccnc1 [Compound 1056, N-Cyclopentyl-N-(2-morpholinoethoxy)-6-(3-(pyridin-3-ylmethyl)ureido)hexane-1-sulfonamide]
31 | 0.23 | O=C(NCCCCCCS(=O)(=O)N(OCCN1CCOCC1)C1CCCCC1)Nc1ccncc1 [Compound 1008, N-Cyclohexyl-N-(2-morpholinethoxy)-6-(3-pyridin-4-ylureido)hexane-1-sulfonamide oxalate]
32 | 0.33 | O=C(NCCCCCCC(=O)N(OCCN1CCOCC1)C1CCCCC1)NCc1cccnc1 [Compound 1009, N-cyclohexyl-N-(2-morpholinoethoxy)-7-(3-(pyridin-3-ylmethyl)ureido)heptanamide]
33 | 5.4 | O=C(NCCCCCCS(=O)(=O)Nc1ccccc1)NCc1cccnc1 [Compound 1076, N-Phenyl-6-(3-(pyridin-3-ylmethyl)ureido)hexane-1-sulfonamide]
34 | 2.04 | O=C(NCCCCCCS(=O)(=O)N(CCF)OCC1CCCCC1)NCc1cccnc1 [Compound 1089, N-(cyclohexylmethoxy)-N-(2-fluoroethyl)-6-(3-(pyridin-3-ylmethyl)ureido)hexane-1-sulfonamide]
35 | 0.63 | O=C(NCCCCCCS(=O)(=O)N(OCCN1CCOCC1)C1CCCCCC1)NCc1cccnc1 [Compound 1058, N-Cycloheptyl-N-(2-morpholinoethoxy)-6-(3-(pyridin-3-ylmethyl)ureido)hexane-1-sulfonamide]
